Data from US20180064821A1, “SITE SPECIFIC CURCUMIN-POLYMER MOLECULAR COMPLEXES AND METHODS OF TREATING COLON DISEASES AND INFLAMMATION” (priority 2016, published 2018).
Like-named read-outs stand apart in the source and are kept apart here.

Legend:
[1] = Aqueous stability of curcumin complexes; type: physicochemical; settings: 37° C.
Description: At different time intervals (0, 1, 2, 4, 6, 8, 12, 16, 20, 24 h), the samples were collected, centrifuged (20,000 g) and the supernatant was passed through […] filter.

[2] = tested on: HT29 colo-rectal cancer cells; assay: pH dependent cellular uptake by flow cytometry, HT29; type: cell-based, human
Description: (§1) Briefly, 2×10^5 cells were seeded in 24 well-plates and allowed to adhere for 24 h. […] After 4 h, the cells were washed with PBS, trypsinized, fixed using 4% paraformaldehyde (PFA) and stored at 4° C. until further analysis using flow cytometer. […] Sample acquisition was performed using BD Biosciences FACS LSR Fortessa and data analyzed using FlowJo software (FlowJo LLC).

[3] = tested on: HCT116 colo-rectal cancer cells; assay: pH dependent cellular uptake by flow cytometry, HCT116; type: cell-based, human
Description: as §1

[4] = tested on: HT29 human colo-rectal cancer cells; assay: MTT cell viability assay, HT29; type: cell-based; settings: 48 h incubation
Description: (§2) Following 48 h of incubation, 0.5 mg/ml MTT solution was added to each well, and the cells were incubated for further 4 h at 37° C. After 4 h, 150 μl of DMSO was added to each well and incubated for 1 h at 37° C. to dissolve the formazan crystals. The absorbance was then measured at 570 nm with a reference wavelength of 650 nm using UV-visible spectrophotometer. The results are represented in terms of percentage inhibition of cell proliferation compared to that of vehicle control. The cellular viability was assessed as a percentage of the control by using the following equation.

[5] = tested on: HCT116 human colo-rectal cancer cells; assay: MTT cell viability assay, HCT116; type: cell-based; settings: 48 h incubation
Description: as §2

## COc1cc(/C=C/C(=O)CC(=O)/C=C/c2ccc(O)c(OC)c2)ccc1O [Curcumin, (1E,6E)-1,7-bis(4-hydroxy-3-methoxyphenyl)-1,6-heptadiene-3,5-dione]
[1]; SIF (pH 6.7-6.9) and pH 7.0 buffer with 10% methanol, 24 h
  initial curcumin present: ~10%
[1]; aqueous buffers with 10% methanol, within 2 h
  initial curcumin present: ~30%
[2]; pH 5.5, 4 h
  Cellular uptake of curcumin, Mean fluorescence intensity: 2704 ± 221
[2]; pH 7.0, 4 h
  Cellular uptake of curcumin, Mean fluorescence intensity: 2429 ± 247
[3]; pH 5.5, 4 h
  Cellular uptake of curcumin, Mean fluorescence intensity: 2543 ± 72
[3]; pH 7.0, 4 h
  Cellular uptake of curcumin, Mean fluorescence intensity: 3514 ± 975
[4]; listed as Unformulated curcumin at pH 7.0, read-out: IC50 (mean ± SD) In HT29 Cells
  IC50: > 80 µM
[4]; Homo sapiens, HT-29, 48 h, read-out: IC50 (mean ± SD) In HT29 Cells
  IC50: 41.8 ± 1.86 µM
[5]; listed as Unformulated curcumin at pH 7.0, read-out: IC50 (mean ± SD) In HCT116 Cells
  IC50: > 80 µM
[5]; listed as curcumin in DMSO, read-out: IC50 (mean ± SD) In HCT116 Cells
  IC50: 18.4 ± 1.94 µM
